Columns and labels:
[1] = test system: non-fermenting gram negative bacilli (NFGNB), excluding P. aeruginosa; test: Phase 2 study: non-fermenting gram negative bacilli density in sputum; format: in vivo; conditions: MITT population
Description: The following dosage regimens (as nebulizer loaded doses) were evaluated: 120 mg QD (daily); 240 mg QD (daily); and 240 mg BID (twice daily). Based on aerosol characterization studies of the 100 mg/ml formulation, these loaded doses of 120 and 240 mg correspond estimated respirable delivered doses (RDDs) using a PART eFlow nebulizer of about 65 and 130 mg, respectively.
Patients were assessed on Day 1, 7, 14, and 28, and then up to 28 days after completion of study drug, namely, Days 42 and 56. The end of the study was defined as the last visit of the last patient. Study populations included: (1) safety/modified intent to treat (MITT) population which included all patients enrolled in the study that receive at least one dose of study drug; (2) efficacy evaluable (EE) population which included all patients enrolled in the study without major protocol violations that receive at least 80% of study drug doses during the 28 days of study drug therapy; and (3) pharmacokinetic (PK) population which included all patients that receive at least one dose of study drug and have at least one PK blood sample collected.
Changes in P. aeruginosa density (log lo CFU/g sputum) for sputum samples taken from the EE and MITT populations are summarized in Tables 10 and 11, respectively (SD=standard deviation). […] Tables 18 and 19 summarize changes in non-fermenting gram negative bacilli density (NFGNB), excluding P. aeruginosa, with only patients with positive NFGNB counts at baseline, for EE and MITT populations, respectively. Tables 20 and 21 summarize changes for presumptive S. aureus density (log10 CFU/g sputum) for only patients with positive S. aureus counts at baseline, for EE and MITT populations, respectively.

[2] = test system: stable CF patients; test: Phase 2 study: time to need for anti-pseudomonal antimicrobials; format: in vivo, human; conditions: for Patients Requiring Anti-Pseudomonal Antimicrobials: EE population; for Number (%) of Patients Requiring Anti-Pseudomonal Antimicrobials: MITT population
Description: (§1) The following dosage regimens (as nebulizer loaded doses) were evaluated: 120 mg QD (daily); 240 mg QD (daily); and 240 mg BID (twice daily).
Efficacy endpoints including clinical endpoints, pulmonary function tests, and additional microbiological parameters were assessed as change from Day 1 to subsequent visits where the endpoint data was collected. Time to need for intravenous/oral/inhaled anti-pseudomonal antimicrobials were assessed from Day 1 until final visit using survival analysis. The primary population for efficacy analysis was the EE population, but efficacy endpoints were also analyzed using the MITT population.
Time to administration of intravenous/oral/inhaled anti-pseudomonal antimicrobials from Day 1 until Final visit was measured for patients with at least one of the following: decreased exercise tolerance, increased cough, increased sputum/chest congestion, and decreased appetite. The proportion of patients requiring anti-pseudomonal antimicrobials (inhaled or systemic) over time was analyzed using a Cox proportional hazards model.

[3] = test system: stable CF patients; test: Phase 2 study: safety, adverse events, discontinuation; format: in vivo, human
Description: as §1
Patients were assessed on Day 1, 7, 14, and 28, and then up to 28 days after completion of study drug, namely, Days 42 and 56. The end of the study was defined as the last visit of the last patient.
Adverse events and drug intolerability from Day 1 through the end of study were evaluated.

C[C@H]1COc2c(N3CCN(C)CC3)c(F)cc3c(=O)c(C(=O)O)cn1c23 [Levofloxacin, levofloxacin]
NFGNB density, Day 7, Mean ([1]; 240 mg BID): 5.63 log10 CFU/g sputum | NFGNB density, Day 14, Mean ([1]; 240 mg BID): 6.50 log10 CFU/g sputum | NFGNB density, Day 28, Mean ([1]; 240 mg BID): 5.63 log10 CFU/g sputum | NFGNB density, Change from Baseline to Day 28, Mean ([1]; 240 mg BID, Day 14): 0.45 log10 CFU/g sputum | NFGNB density, Change from Baseline to Day 28, Mean ([1]; 240 mg BID, Day 28): −0.43 log10 CFU/g sputum | NFGNB density, Change from Baseline to Day 7, Mean ([1]; 240 mg QD): −2.73 log10 CFU/g sputum | NFGNB density, Day 1, Mean ([1]; 240 mg QD): 5.26 log10 CFU/g sputum | NFGNB density, Day 7, Mean ([1]; 240 mg QD): 2.52 log10 CFU/g sputum | NFGNB density, Day 14, Mean ([1]; 240 mg QD): 3.08 log10 CFU/g sputum | NFGNB density, Day 28, Mean ([1]; 240 mg QD): 2.77 log10 CFU/g sputum | NFGNB density, Change from Baseline to Day 28, Mean ([1]; 240 mg QD, Day 14): −2.18 log10 CFU/g sputum | NFGNB density, Change from Baseline to Day 28, Mean ([1]; 240 mg QD, Day 28): −2.49 log10 CFU/g sputum | NFGNB density, Change from Baseline to Day 7, Mean ([1]; Combined 240 mg QD and BID): −1.77 log10 CFU/g sputum | NFGNB density, Day 1, Mean ([1]; Combined 240 mg QD and BID): 5.59 log10 CFU/g sputum | NFGNB density, Day 7, Mean ([1]; Combined 240 mg QD and BID): 3.82 log10 CFU/g sputum | NFGNB density, Day 14, Mean ([1]; Combined 240 mg QD and BID): 4.50 log10 CFU/g sputum | NFGNB density, Day 28, Mean ([1]; Combined 240 mg QD and BID): 3.96 log10 CFU/g sputum | NFGNB density, Change from Baseline to Day 28, Mean ([1]; Combined 240 mg QD and BID, Day 14): −1.08 log10 CFU/g sputum | NFGNB density, Change from Baseline to Day 28, Mean ([1]; Combined 240 mg QD and BID, Day 28): 1.63 log10 CFU/g sputum | NFGNB density, Change from Baseline to Day 7, Mean ([1]; Combined Levofloxacin): −1.59 log10 CFU/g sputum | NFGNB density, Day 1, Mean ([1]; Combined Levofloxacin): 5.62 log10 CFU/g sputum | NFGNB density, Day 7, Mean ([1]; Combined Levofloxacin): 4.03 log10 CFU/g sputum | NFGNB density, Day 14, Mean ([1]; Combined Levofloxacin): 4.11 log10 CFU/g sputum | NFGNB density, Day 28, Mean ([1]; Combined Levofloxacin): 4.24 log10 CFU/g sputum | NFGNB density, Change from Baseline to Day 28, Mean ([1]; Combined Levofloxacin, Day 14): −1.51 log10 CFU/g sputum | NFGNB density, Change from Baseline to Day 28, Mean ([1]; Combined Levofloxacin, Day 28): −1.58 log10 CFU/g sputum | Patients Requiring Anti-Pseudomonal Antimicrobials ([2]; 120 mg QD): 20.0% | Patients Requiring Anti-Pseudomonal Antimicrobials ([2]; 240 mg BID): 20.6% | Patients Requiring Anti-Pseudomonal Antimicrobials ([2]; 240 mg QD): 25.7% | Patients Requiring Anti-Pseudomonal Antimicrobials ([2]; Combined 240 mg QD and BID): 23.2% | Number (%) of Patients Requiring Anti-Pseudomonal Antimicrobials ([2]; 120 mg QD): 18.4% | Number (%) of Patients Requiring Anti-Pseudomonal Antimicrobials ([2]; 240 mg BID): 20.5% | Number (%) of Patients Requiring Anti-Pseudomonal Antimicrobials ([2]; 240 mg QD): 27.0% | Number (%) of Patients Requiring Anti-Pseudomonal Antimicrobials ([2]; Combined 240 mg QD and BID): 23.7% | Discontinuation from study, primary reason adverse event, patients (%) ([3]; 120 mg QD): 1 (2.6%) | Study drug discontinuation, adverse event, patients (%) ([3]; 120 mg QD): 3 (7.9%) | Study drug discontinuation, patients (%) ([3]; 120 mg QD): 3 (7.9%) | Discontinuation from study, primary reason adverse event, patients (%) ([3]; 240 mg BID): 2 (5.1%) | Study drug discontinuation, adverse event, patients (%) ([3]; 240 mg BID): 2 (5.1%) | Study drug discontinuation, patients (%) ([3]; 240 mg BID): 2 (5.1%) | Discontinuation from study, primary reason adverse event, patients (%) ([3]; 240 mg QD): 1 (2.7%) | Study drug discontinuation, adverse event, patients (%) ([3]; 240 mg QD): 1 (2.7%) | Study drug discontinuation, patients (%) ([3]; 240 mg QD): 1 (2.7%) | Significant adverse events ([3]; Day 1 through the end of study): No significant adverse events were reported
